Patent US20040171089A1, “High-throughput screening assay for identifying substances capable of modulating cell survival and/or proliferation” (priority 2001, published 2004)

Tests used:
phospholipase C = assay: GFP-PH PLCdelta 1 relocalisation (PLC activation) in MDA MB 468 cells; assay type: cell-based, human
Description: The inventors introduced a recombinant plasmid vector encoding a hybrid protein comprised of the pleckstrin homology (PH) domain of phospholipase C (PLC) delta 1 fused green fluorescent protein (GFP) (GFP-PH PLCdelta 1) into MDA MB 468 mammary carcinoma cells. A standard transfection method (Fugene-6—Roche) was used. […] Cells were maintained in DMEM with 10% fetal bovine serum at 37 deg C. in 5% CO2 before and during exposure to sigma ligands which were present at a range of concentrations. Effects on the GFP-PH PLCdelta 1 protein were studied in two ways: by time lapse microscopy (using a Leica inverted fluorescence microscope and a Hammamatsu Orca charge-coupled device camera, linked to an Improvision Open Lab image processing workstation). This enabled the time course of effects to be determined. […] Control cell populations received drug vehicle alone and were analysed at the same time points.
GFP-PH PLC delta 1—expressing MDA MB 468 cells were exposed to sigma antagonists in 1 mM and 0 mM (nominally calcium-free) buffer (as used for the calcium imaging experiments, described above) and monitored by time lapse imaging as above.

MCF-7 cells = assay: Fura-2 calcium imaging, MCF-7 cells; assay type: cell-based, human; conditions: 10 μM
Description: (§1) For calcium imaging experiments cells were plated onto poly-L-lysine coated coverslips (13 mm). Single cell imaging was performed utilizing a MiraCal Imaging facility (Life Science Resources, Cambridge, U.K.) with a Nikon Diaphot-TMD inverted epifluorescence microscope equipped with a ×40 oil immersion objective and Sutter filter wheel. The imager was equipped with a Lambert intensifier 1187 (Life Sciences Resources) providing a ×30 enhancement of the fluorescent signal, thus limiting phototoxicity.
(§2) Fura-2 acetoxymethyl ester (fura-2 AM) incubations with the cells were performed at 37° C. in a medium containing (in mM): 120 NaCl, 3.5 KCl, 0.4 KH2PO4, 5 NaHCO3, 1.2 Na2SO4, 15 glucose, 1.2 MgCl2, 1 CaCl2, and 20 TES [N-tris(hydroxymethyl) methyl-2-aminoethane sulphonic acid] pH adjusted to 7.4 with NaOH. Typically cells were incubated in 3 μM fura-2 AM for 25 min., which permitted sufficient accumulation of free fura-2 in the cell cytoplasm. Cells were then illuminated alternately at 340 and 380 nm with the emitted 505 nm light being detected by a photomultiplier. […] Changes of intracellular calcium were quantified as the percentage increase of the fluorescent ratio (determined at ˜505 nm) obtained by exciting the test cells alternatively at 340 nm (optimal for calcium bound dye) and 380 nm.

mammary epithelial cells = assay: MTS cell viability/proliferation assay, mammary epithelial cells; assay type: cell-based, human; conditions: 1-10 μM
Description: Human mammary epithelial cells (catalogue number CC-2551; stain positive for cytokeratins 14, 18 and 19)
(§3) This was carried out using an MTS assay (reagents from Promega Corporation, Madison Wis., USA) which is a modification of the MTT assay (as described in Jacobson et al, 1994 EMBO J Vol 13 pp1899-1910). The assay depends on conversion of the MTS tetrazolium compound to a coloured formazan product in metabolically active cells; it is therefore an assay of viable cell number. A decline in values implies cell killing as long as cell disappearance by apoptosis in untreated cell populations is absent or negligible (as with most healthy primary cell populations).
Cells were seeded in the range 1.5×10^5-1.8×10^5 cells per ml of culture medium in 96 well microtitre plates and allowed to attach in a humidifed atmosphere of 5% CO2 in air at 37 deg C. Drugs were added 18-24 hours later and cell viability/proliferation measured at time intervals up to 48-72 hours post-drug addition when the experiment was terminated. […]
(§4) Cell viability was measured as follows: 20 μl of MTS solution (Promega) was added to wells and incubated at 37 deg C. for 3 hours during which time a coloured formazan product is generated in viable cells. […] Viable cell number was then measured by reading absorbance at 490 nm in a Dynex microtitre plate reader. […]

[1] = tested on: human prostate epithelial cells; assay: Fura-2 calcium imaging, prostate epithelial cells; assay type: cell-based
Description: Human prostate epithelial cells (catalogue number CC-2555; stain positive for cytokeratin 8,13.)
as §1, §2

MDA MB 468 cells = assay: MTS cell viability/proliferation assay, MDA MB 468 cells; assay type: cell-based, human; conditions: 15 minute exposure then drug-free medium; at 48 hours; MTS
Description: as §3
Cells were seeded in the range 1.5×10^5-1.8×10^5 cells per ml of culture medium in 96 well microtitre plates and allowed to attach in a humidifed atmosphere of 5% CO2 in air at 37 deg C. Drugs were added 18-24 hours later and cell viability/proliferation measured at time intervals up to 48-72 hours post-drug addition when the experiment was terminated. Mean (±SE) values at each time point were obtained from wells in triplicate.
as §4

[2] = tested on: human primary microvascular endothelial cells; assay: Fura-2 calcium imaging, microvascular endothelial cells; assay type: cell-based
Description: Human adult dermal microvascular endothelial cells (catalogue number CC-2543; cells had been characterised by tests for cell type markers: positive for acetylated LDL uptake, positive for factor VIII related antigen, negative for alpha smooth muscle actin)
as §1
Fura-2 acetoxymethyl ester (fura-2 AM) incubations with the cells were performed at 37° C. in a medium containing (in mM): 120 NaCl, 3.5 KCl, 0.4 KH2PO4, 5 NaHCO3, 1.2 Na2SO4, 15 glucose, 1.2 MgCl2, 1 CaCl2, and 20 TES [N-tris(hydroxymethyl) methyl-2-aminoethane sulphonic acid] pH adjusted to 7.4 with NaOH. Typically cells were incubated in 3 μM fura-2 AM for 25 min., which permitted sufficient accumulation of free fura-2 in the cell cytoplasm. Cells were then illuminated alternately at 340 and 380 nm with the emitted 505 nm light being detected by a photomultiplier. Free fura emits maximally when excited at 380 nm, whilst the calcium bound fura has a maximal emission when excited at 340 nm. Thus the ratio of emission when alternately excited at 340/380 nm is a measure of the calcium concentration in equilibrium with the chelator. Changes of intracellular calcium were quantified as the percentage increase of the fluorescent ratio (determined at ˜505 nm) obtained by exciting the test cells alternatively at 340 nm (optimal for calcium bound dye) and 380 nm.

[3] = 1-10 μM, microvascular endothelial cells

## N=C(Nc1ccc(I)cc1)NC1C2CC3CC(C2)CC1C3 (stereo not shown) [IPAG, 1-(4-iodophenyl)-3-(2-adamantyl)guanidine]
Phospholipase C; 100 μM, approximately 10 minutes, DMEM with 10% fetal bovine serum
  relocalisation of GFP-PH PLC delta 1 from membrane to cytosol: pronounced relocalisation
Phospholipase C; nominally calcium-free buffer (0 mM calcium)
  localisation of GFP-PH PLC delta 1: remained membrane-localised
MCF-7 cells
  time by which calcium levels have returned to baseline: ≤ 30 min
  time to peak effect on cytosolic calcium: ≤ 5 min
Mammary epithelial cells
  Cytotoxicity: not cytotoxic
[1]; 1 μM
  % increase of cytosolic calcium (peak 340/380 nm fura-2 ratio): 10±5%
[1]; 10 μM
  % increase of cytosolic calcium (peak 340/380 nm fura-2 ratio): 25±5%
MDA MB 468 cells
  viable cell number less than control values: 20-30%
[2]; 1 μM, microvascular endothelial cells
  % increase of cytosolic calcium (peak 340/380 nm fura-2 ratio): 119±13%
[2]; 10 μM, 1 mM, 0.1 mM and nominally calcium free medium
  initial calcium rise above baseline, occurring within 1 minute: > 100%
[2]; 10 μM, microvascular endothelial cells
  % increase of cytosolic calcium (peak 340/380 nm fura-2 ratio): 293±14%
[2]; [3]
  time to evident increase of cytosolic calcium after drug application: 5 to 10 s
  time to peak effect on cytosolic calcium: ≤ 3 min
